PMC12668310, “High‐Throughput Synthesis and Screening of a Cyanimide Library Identifies Selective Inhibitors of ISG15‐Specific Protease mUSP18” (Angewandte Chemie (International Ed. in English), 2025)
Like-named read-outs stand apart in the source and are kept apart here.

Target: T1, mUSP18 (Mus musculus, UniProt Q9WTV6)
T1 construct: (46-368); His-tag (N); made in house
T1 sequence (Q9WTV6 46-368): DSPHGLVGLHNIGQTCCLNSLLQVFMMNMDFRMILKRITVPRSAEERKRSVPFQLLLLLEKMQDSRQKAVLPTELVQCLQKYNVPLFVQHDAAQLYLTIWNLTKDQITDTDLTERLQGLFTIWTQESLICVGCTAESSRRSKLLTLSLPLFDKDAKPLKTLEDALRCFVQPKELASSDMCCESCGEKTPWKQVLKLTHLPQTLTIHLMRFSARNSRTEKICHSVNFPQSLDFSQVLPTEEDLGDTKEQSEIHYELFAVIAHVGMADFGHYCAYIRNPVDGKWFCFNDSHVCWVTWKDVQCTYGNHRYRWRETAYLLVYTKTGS
Assay: High-throughput screening, ISG15ct-RhoMP, single dose 1.25 µM
Assay type: biochemical, murine
Conditions: mUSP18 %inhibition

[1] = carboxylic acid (CA) building block alone, read-out: %inh CA only
[2] = carboxylic acid (CA) with coupling reagents DIC/HOBT, read-out: %inh CA + DIC/HOBT
[3] = carboxylic acid (CA) building block alone
[4] = carboxylic acid (CA) with coupling reagents DIC/HOBT

With `O=C(O)c1csc(-c2cnc[nH]2)n1` [CA238] the inhibition at 1.25 µM [1] was 6.66% and the inhibition at 1.25 µM [2] was -0.05%.

With `O=C(O)c1ccccc1OCc1ccncc1` [CA129] the inhibition at 1.25 µM [1] was 8.78% and the inhibition at 1.25 µM [2] was 10.2%.

In the case of `O=C(O)c1noc(Cc2ccccc2F)n1` [CA121], the inhibition at 1.25 µM [1] is reported as 10.7% and the inhibition at 1.25 µM [2] is reported as 7.15%.

`O=C(O)c1cccc2cc3ccccc3cc12` [CA069] gave an inhibition at 1.25 µM [1] of -0.58% and an inhibition at 1.25 µM [2] of -8.94%.

For `COCC(=O)O` [CA080], the inhibition at 1.25 µM [1] was -8.74% and the inhibition at 1.25 µM [2] was -15.7%.

Work on `O=Cc1ccc(C(=O)O)cc1` [CA037] yielded an inhibition at 1.25 µM [1] of 9.56% and an inhibition at 1.25 µM [2] of -5.24%.

`CN(CC(=O)N1CCCC(C(=O)O)C1)c1ccc(Cl)cn1` (centres unmarked) [CA241] was tested, and the inhibition at 1.25 µM [1] was 5.13% and the inhibition at 1.25 µM [2] was 1.85%.

`O=C(O)c1csc(-c2ccc(Br)s2)n1` [CA292] was tested, and the inhibition at 1.25 µM [1] was 6.43% and the inhibition at 1.25 µM [2] was 1.42%.

`O=C(O)CCN(Cc1ccccc1)S(=O)(=O)c1c(Cl)cccc1Cl` [CA093] was tested, and the inhibition at 1.25 µM [1] was 18.6% and the inhibition at 1.25 µM [2] was 13.9%.

Compound `O=C(O)c1nc(N2CCCC2)ncc1Cl` [CA090] has an inhibition at 1.25 µM [1] of 23.1% and an inhibition at 1.25 µM [2] of 14.2%.

For `O=C(O)Cc1ccc([N+](=O)[O-])cc1` [CA012], the inhibition at 1.25 µM [1] was -3.85% and the inhibition at 1.25 µM [2] was -8.78%.

In the case of `O=C(O)c1c(-c2ccccc2)noc1C(F)F` [CA177], the inhibition at 1.25 µM [1] is reported as 4.94% and the inhibition at 1.25 µM [2] is reported as 4.56%.

`Cn1ncc(C(=O)O)c1-n1cccc1` [CA117] showed an inhibition at 1.25 µM [1] of 18.6% and an inhibition at 1.25 µM [2] of 10%.

Compound `Cc1nc(-c2cnn(C)c2)sc1C(=O)O` [CA196] has an inhibition at 1.25 µM [1] of 6.54% and an inhibition at 1.25 µM [2] of 3.44%.

`O=C(NNc1ccc(C(=O)O)cc1)OCC1c2ccccc2-c2ccccc21` [CA035] showed an inhibition at 1.25 µM [1] of 9.05% and an inhibition at 1.25 µM [2] of 23.4%.

Work on `O=C(O)c1cccc(S(=O)(=O)Nc2ccc(Cl)cc2)c1` [CA134] yielded an inhibition at 1.25 µM [1] of 10% and an inhibition at 1.25 µM [2] of 11.6%.

`CC(C)(C)OC(=O)NC1(C(=O)O)CC1` [CA060] was tested, and the inhibition at 1.25 µM [1] was -6.62% and the inhibition at 1.25 µM [2] was -13.2%.

Compound `O=C(O)c1cccc(OCCOc2ccccc2Cl)n1` [CA309] has an inhibition at 1.25 µM [1] of 8.2% and an inhibition at 1.25 µM [2] of -0.34%.

In the case of `CN1C(=O)C[C@@H](C(=O)O)[C@@H]1c1cccnc1` [CA306], the “%inh CA only” value [3] is reported as 15.74% and the “%inh CA + DIC/HOBT” value [4] is reported as -6.80%.

`O=C(O)c1ccc(OCc2cccnc2)cc1` [CA399] was tested, and the inhibition at 1.25 µM [1] was -10.1% and the inhibition at 1.25 µM [2] was -0.24%.

`O=C(O)c1nc(OCC2CC2)ccc1Cl` [CA322] showed an inhibition at 1.25 µM [1] of -0.54% and an inhibition at 1.25 µM [2] of -0.53%.

With `O=C(O)c1cc(C2CC2)no1` [CA349] the inhibition at 1.25 µM [1] was -3.22% and the inhibition at 1.25 µM [2] was 5.85%.

For `O=C(O)Cc1ccc(S(=O)(=O)N2CCCC2)s1` [CA099], the inhibition at 1.25 µM [1] was 21.7% and the inhibition at 1.25 µM [2] was 15.6%.

With `Cc1nc(COc2ccccc2C(=O)O)no1` [CA307] the inhibition at 1.25 µM [1] was 9.87% and the inhibition at 1.25 µM [2] was -3.65%.

`O=C(O)CC1CCN(c2ccc(C(F)(F)F)cn2)CC1` [CA374] gave an inhibition at 1.25 µM [1] of 0.78% and an inhibition at 1.25 µM [2] of 1.18%.

Work on `O=C(O)C1CCN(C(=O)N2CCOCC2)CC1` [CA444] yielded an inhibition at 1.25 µM [1] of -6.76% and an inhibition at 1.25 µM [2] of -0.57%.

`O=C(O)C1CC(=O)N(CCN2CCOCC2)C1` (centres unmarked) [CA201] gave an inhibition at 1.25 µM [1] of 1.58% and an inhibition at 1.25 µM [2] of 1.88%.

Work on `O=C(O)Cc1ccncc1` [CA017] yielded an inhibition at 1.25 µM [1] of -7.18% and an inhibition at 1.25 µM [2] of -13%.

`O=C(O)C1=NNC(=O)C1c1ccccc1` (centres unmarked) [CA252] showed an inhibition at 1.25 µM [1] of 3.55% and an inhibition at 1.25 µM [2] of 10.3%.

For `Cc1n[nH]c(C)c1Cc1ccc(C(=O)O)o1` [CA445], the inhibition at 1.25 µM [1] was -7.28% and the inhibition at 1.25 µM [2] was 2.15%.

Work on `Cn1nccc1[1C@@H]1OCCC[1C@H]1C(=O)O` [CA164] yielded an inhibition at 1.25 µM [1] of 14.4% and an inhibition at 1.25 µM [2] of -2.41%.

In the case of `COc1ccc(C(=O)O)cc1S(=O)(=O)N(C)CCc1cccnc1` [CA373], the inhibition at 1.25 µM [1] is reported as 0.43% and the inhibition at 1.25 µM [2] is reported as 4.83%.

`O=C(O)C1CCN1C1CCCC1` (centres unmarked) [CA402] gave an inhibition at 1.25 µM [1] of 0.37% and an inhibition at 1.25 µM [2] of -9.76%.

For `O=C(O)C1CC(=O)N(C2CCCCCC2)C1` (centres unmarked) [CA247], the inhibition at 1.25 µM [1] was 2.25% and the inhibition at 1.25 µM [2] was 4.63%.

In the case of `CN1C(=O)C[C@@H](C(=O)O)[C@@H]1c1cccnc1` [CA042], the “%inh CA only” value [3] is reported as 0.50% and the “%inh CA + DIC/HOBT” value [4] is reported as -12.12%.

In the case of `O=C(O)c1cccc(Oc2nccs2)c1` [CA433], the inhibition at 1.25 µM [1] is reported as -0.99% and the inhibition at 1.25 µM [2] is reported as -7.69%.

`CC(C)n1nccc1[1C@@H]1OCC[1C@H]1C(=O)O` [CA449] showed an inhibition at 1.25 µM [1] of 2.37% and an inhibition at 1.25 µM [2] of -9.4%.

In the case of `CC1CC1C(=O)N1CCCCC1C(=O)O` (centres unmarked) [CA145], the inhibition at 1.25 µM [1] is reported as 4.43% and the inhibition at 1.25 µM [2] is reported as 1.71%.

In the case of `CN(Cc1ccccc1)C(=O)N1CCC(C(=O)O)CC1` [CA333], the inhibition at 1.25 µM [1] is reported as 1.66% and the inhibition at 1.25 µM [2] is reported as -0.9%.

In the case of `O=C(O)Cc1csc(COc2ccc(Cl)cc2)n1` [CA097], the inhibition at 1.25 µM [1] is reported as 15.8% and the inhibition at 1.25 µM [2] is reported as 12.5%.
